Experimental data: patent US8268858B2, “Compounds and methods for kinase modulation, and indications therefor” (Plexxikon Inc., priority 2006, dated 2012)

Assays:
Format in all cases: biochemical
[1] = target: Jnk1 (Homo sapiens, UniProt P45983); test: Kinase activity assay, Jnk1; settings: under the test conditions employed; read-out: activity toward kinase Jnk1, IC50
Method: (§1) The effect of potential modulators of kinase activity of c-kit and other kinases can be measured in a variety of different assays known in the art, e.g., biochemical assays, cell-based assays, and in vivo testing (e.g. model system testing). Such in vitro and/or in vivo assays and tests can be used in the present invention. As an exemplary kinase assay, the kinase activity of c-kit or Fms is measured in AlphaScreening (Packard BioScience). Assays for the activity of various kinases are described, for example, in U.S. patent application Ser. No. 11/473,347 (see also, PCT publication WO2007002433), the disclosure of which is hereby incorporated by reference.

[2] = target: Kdr (Homo sapiens, UniProt P35968); test: Kinase activity assay, Kdr; settings: under the test conditions employed; read-out: activity toward kinase Kdr, IC50
Method: as §1

[3] = target: Kit (Homo sapiens, UniProt P10721); test: Kinase activity assay, Kit; settings: under the test conditions employed; read-out: activity toward kinase Kit, IC50
Method: as §1

[4] = target: Btk (Homo sapiens, UniProt Q06187); test: Kinase activity assay, Btk; settings: under the test conditions employed; read-out: activity toward kinase Btk, IC50
Method: as §1

[5] = target: Fms (Homo sapiens, UniProt P07333); test: Kinase activity assay, Fms; settings: under the test conditions employed; read-out: activity toward kinase Fms, IC50
Method: as §1

[6] = target: B-Raf V600E/T529I (Homo sapiens, UniProt P15056, T529I/V600E); test: Kinase activity assay, B-Raf V600E/T529I; settings: under the test conditions employed; read-out: activity toward kinase B-Raf V600E/T529I, IC50
Method: as §1

[7] = target: Flt1 (Homo sapiens, UniProt P17948); test: Kinase activity assay, Flt1; settings: under the test conditions employed; read-out: activity toward kinase Flt1, IC50
Method: as §1

[8] = target: B-Raf (Homo sapiens, UniProt P15056); test: Kinase activity assay, B-Raf; settings: under the test conditions employed; read-out: activity toward kinase B-Raf, IC50
Method: as §1

[9] = target: B-Raf V600E (Homo sapiens, UniProt P15056, V600E); test: Kinase activity assay, B-Raf V600E; settings: under the test conditions employed; read-out: activity toward kinase B-Raf V600E, IC50
Method: as §1

[10] = target: c-Raf-1 (Homo sapiens, UniProt P04049); test: Kinase activity assay, c-Raf-1; settings: under the test conditions employed; read-out: activity toward kinase c-Raf-1, IC50
Method: as §1

[11] = target: Src (Homo sapiens, UniProt P12931); test: Kinase activity assay, Src; settings: under the test conditions employed; read-out: activity toward kinase Src, IC50
Method: as §1

Measured: IC50

Chain of Jnk1 (P45983 whole entry): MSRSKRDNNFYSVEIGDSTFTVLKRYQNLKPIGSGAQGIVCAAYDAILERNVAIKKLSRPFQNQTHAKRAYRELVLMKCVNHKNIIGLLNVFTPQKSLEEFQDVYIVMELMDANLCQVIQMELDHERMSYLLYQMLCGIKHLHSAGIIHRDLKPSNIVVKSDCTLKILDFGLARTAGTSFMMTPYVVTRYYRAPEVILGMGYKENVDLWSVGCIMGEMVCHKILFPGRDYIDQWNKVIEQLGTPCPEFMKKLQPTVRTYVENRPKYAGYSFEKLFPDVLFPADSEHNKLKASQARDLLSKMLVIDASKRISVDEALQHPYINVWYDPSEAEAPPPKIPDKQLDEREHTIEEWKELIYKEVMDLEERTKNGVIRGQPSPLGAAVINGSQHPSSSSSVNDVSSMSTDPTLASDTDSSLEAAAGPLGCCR
Chain of B-Raf V600E (P15056 whole entry V600E): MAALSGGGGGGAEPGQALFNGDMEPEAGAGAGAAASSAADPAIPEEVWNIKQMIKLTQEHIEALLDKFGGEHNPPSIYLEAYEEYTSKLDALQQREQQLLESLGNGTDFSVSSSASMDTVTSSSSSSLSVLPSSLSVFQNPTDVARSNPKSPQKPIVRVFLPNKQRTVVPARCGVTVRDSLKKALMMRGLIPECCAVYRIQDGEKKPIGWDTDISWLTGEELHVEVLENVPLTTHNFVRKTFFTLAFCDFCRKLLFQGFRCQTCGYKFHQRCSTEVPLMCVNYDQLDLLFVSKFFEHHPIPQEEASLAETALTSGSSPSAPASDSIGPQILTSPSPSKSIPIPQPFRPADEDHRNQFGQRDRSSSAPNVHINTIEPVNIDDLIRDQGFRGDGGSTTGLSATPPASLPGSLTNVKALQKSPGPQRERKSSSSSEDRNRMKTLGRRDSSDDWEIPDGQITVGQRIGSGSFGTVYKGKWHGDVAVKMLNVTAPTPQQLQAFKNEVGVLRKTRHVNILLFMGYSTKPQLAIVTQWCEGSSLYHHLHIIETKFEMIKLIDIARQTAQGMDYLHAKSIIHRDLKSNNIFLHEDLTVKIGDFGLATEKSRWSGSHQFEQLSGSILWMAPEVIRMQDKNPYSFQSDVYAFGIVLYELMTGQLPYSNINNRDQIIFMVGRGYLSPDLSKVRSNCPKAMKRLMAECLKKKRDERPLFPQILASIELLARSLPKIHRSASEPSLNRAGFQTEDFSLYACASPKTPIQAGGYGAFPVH
Chain of B-Raf (P15056 whole entry): as the sequence (P15056 whole entry V600E) above, with E600V counted along it
Chain of Flt1 (P17948 27-1338): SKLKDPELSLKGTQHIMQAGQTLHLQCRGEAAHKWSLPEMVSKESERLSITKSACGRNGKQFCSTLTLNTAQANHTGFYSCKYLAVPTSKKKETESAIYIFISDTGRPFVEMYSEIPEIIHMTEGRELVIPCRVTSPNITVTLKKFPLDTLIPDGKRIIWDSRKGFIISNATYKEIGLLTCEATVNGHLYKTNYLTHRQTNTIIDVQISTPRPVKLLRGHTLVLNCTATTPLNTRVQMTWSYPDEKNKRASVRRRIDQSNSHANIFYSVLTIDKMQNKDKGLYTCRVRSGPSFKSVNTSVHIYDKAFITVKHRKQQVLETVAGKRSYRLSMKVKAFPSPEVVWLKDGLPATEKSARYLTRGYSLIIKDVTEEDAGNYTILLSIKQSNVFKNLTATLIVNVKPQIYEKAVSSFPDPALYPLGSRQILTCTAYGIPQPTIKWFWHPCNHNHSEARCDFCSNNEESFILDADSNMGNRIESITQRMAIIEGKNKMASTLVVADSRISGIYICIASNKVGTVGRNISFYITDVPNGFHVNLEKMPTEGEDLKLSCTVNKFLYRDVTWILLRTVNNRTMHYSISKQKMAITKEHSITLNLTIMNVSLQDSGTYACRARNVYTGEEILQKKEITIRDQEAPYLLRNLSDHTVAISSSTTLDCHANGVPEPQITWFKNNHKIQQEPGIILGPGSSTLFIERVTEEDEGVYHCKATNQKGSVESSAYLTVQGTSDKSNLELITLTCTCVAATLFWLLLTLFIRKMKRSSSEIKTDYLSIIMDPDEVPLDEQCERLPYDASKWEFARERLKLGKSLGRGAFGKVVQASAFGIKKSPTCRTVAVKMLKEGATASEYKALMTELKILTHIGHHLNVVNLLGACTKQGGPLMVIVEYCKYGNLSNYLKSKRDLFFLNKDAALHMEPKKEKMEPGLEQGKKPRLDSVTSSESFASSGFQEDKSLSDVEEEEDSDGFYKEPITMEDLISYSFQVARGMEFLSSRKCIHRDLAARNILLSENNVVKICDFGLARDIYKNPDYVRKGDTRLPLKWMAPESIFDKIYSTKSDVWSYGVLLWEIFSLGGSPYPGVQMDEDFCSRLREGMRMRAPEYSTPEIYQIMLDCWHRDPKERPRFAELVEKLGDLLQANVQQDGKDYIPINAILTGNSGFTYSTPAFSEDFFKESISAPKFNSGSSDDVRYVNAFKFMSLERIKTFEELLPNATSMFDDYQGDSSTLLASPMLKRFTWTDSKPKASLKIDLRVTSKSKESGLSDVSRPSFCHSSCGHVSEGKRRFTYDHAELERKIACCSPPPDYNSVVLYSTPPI
Chain of Src (P12931 whole entry): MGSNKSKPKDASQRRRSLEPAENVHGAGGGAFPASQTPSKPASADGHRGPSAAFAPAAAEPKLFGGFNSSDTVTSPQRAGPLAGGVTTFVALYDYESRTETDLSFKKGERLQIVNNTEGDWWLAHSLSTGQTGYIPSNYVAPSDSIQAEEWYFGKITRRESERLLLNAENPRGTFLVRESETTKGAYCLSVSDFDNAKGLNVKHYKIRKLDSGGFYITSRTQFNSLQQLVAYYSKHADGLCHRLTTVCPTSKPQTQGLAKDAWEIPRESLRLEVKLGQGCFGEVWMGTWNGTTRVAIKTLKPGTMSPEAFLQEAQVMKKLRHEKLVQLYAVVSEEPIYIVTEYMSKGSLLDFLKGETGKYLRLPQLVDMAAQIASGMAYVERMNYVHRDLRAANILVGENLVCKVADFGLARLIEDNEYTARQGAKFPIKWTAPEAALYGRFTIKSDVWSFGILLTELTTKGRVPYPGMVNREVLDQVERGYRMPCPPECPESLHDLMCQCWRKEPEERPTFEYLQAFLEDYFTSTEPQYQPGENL
Chain of Fms (P07333 20-972): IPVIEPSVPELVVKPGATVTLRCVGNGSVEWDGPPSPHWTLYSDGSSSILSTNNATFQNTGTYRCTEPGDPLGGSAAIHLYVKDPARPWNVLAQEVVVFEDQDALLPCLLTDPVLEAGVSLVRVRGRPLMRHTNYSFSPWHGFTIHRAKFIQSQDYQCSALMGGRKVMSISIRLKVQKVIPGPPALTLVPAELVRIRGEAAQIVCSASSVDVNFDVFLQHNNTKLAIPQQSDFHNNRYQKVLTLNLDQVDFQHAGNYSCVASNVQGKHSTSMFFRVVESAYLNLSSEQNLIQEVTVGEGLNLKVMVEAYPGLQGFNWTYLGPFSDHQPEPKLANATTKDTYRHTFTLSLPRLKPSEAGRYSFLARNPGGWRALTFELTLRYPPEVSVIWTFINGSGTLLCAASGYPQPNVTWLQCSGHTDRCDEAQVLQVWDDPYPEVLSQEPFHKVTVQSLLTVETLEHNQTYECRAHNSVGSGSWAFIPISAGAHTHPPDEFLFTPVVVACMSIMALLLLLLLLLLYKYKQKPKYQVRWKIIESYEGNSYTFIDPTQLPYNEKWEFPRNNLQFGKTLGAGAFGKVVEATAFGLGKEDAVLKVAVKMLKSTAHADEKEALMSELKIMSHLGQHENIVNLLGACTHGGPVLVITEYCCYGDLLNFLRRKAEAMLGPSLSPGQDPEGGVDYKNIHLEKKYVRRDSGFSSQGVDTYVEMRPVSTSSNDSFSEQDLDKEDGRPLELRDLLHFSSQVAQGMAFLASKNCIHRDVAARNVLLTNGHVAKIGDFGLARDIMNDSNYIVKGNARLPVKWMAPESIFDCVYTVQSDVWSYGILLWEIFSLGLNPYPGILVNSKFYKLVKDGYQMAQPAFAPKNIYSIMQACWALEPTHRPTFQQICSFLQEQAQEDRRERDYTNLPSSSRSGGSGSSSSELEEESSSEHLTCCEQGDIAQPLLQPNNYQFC
Chain of Kit (P10721 26-976): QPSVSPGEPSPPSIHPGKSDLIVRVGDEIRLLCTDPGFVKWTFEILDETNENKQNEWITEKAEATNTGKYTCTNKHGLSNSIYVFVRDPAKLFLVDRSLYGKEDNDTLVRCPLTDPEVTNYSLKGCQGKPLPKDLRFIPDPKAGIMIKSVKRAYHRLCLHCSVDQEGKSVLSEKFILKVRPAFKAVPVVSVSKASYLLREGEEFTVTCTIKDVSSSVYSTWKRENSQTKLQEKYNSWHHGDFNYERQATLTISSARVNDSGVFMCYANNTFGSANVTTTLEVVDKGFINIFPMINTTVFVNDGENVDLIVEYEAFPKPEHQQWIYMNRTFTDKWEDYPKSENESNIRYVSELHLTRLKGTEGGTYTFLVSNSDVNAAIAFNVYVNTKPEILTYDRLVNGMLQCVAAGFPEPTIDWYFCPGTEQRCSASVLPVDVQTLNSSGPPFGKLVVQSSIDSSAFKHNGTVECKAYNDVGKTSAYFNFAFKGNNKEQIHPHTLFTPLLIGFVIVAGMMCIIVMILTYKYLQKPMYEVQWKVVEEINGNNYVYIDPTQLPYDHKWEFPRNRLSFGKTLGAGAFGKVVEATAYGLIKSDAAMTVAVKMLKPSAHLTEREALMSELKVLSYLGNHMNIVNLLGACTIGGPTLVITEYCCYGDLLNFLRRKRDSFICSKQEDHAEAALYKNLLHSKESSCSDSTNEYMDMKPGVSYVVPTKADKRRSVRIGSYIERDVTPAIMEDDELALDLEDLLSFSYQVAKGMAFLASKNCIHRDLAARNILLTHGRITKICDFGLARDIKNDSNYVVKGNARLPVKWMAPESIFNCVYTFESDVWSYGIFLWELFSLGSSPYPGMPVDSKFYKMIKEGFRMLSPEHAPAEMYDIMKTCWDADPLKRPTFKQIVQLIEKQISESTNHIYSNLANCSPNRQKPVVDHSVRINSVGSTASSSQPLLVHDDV
Chain of B-Raf V600E/T529I (P15056 whole entry T529I/V600E): as the sequence (P15056 whole entry V600E) above, with T529I counted along it

c1cc2cc(OC3CCCC3)cnc2[nH]1 [P-0001, 5-cyclopentyloxy-1H-pyrrolo[2,3-b]pyridine]
≤ 10 µM: [1] | [2] | [3]

O=C(c1ccc(Cl)cc1Cl)c1c[nH]c2ncc(Oc3ccccc3)cc12 [P-0036, (2,4-dichloro-phenyl)-(5-phenoxy-1H-pyrrolo[2,3-b]pyridin-3-yl)-methanone]
≤ 10 µM: [4] | [5] | [2] | [3]

COc1ccc(COc2cnc3[nH]ccc3c2)c(OC)c1 [P-0008, 5-(2,4-dimethoxybenzyloxy)-1H-pyrrolo[2,3-b]pyridine]
≤ 10 µM: [6]

CS(=O)(=O)c1ccc(Oc2cnc3[nH]cc(C(=O)c4ccc(F)cc4Cl)c3c2)cc1 [P-0038, (2-Chloro-4-fluoro-phenyl)-[5-(4-methanesulfonyl-phenoxy)-1H-pyrrolo[2,3-b]pyridin-3-yl]-methanone]
≤ 10 µM: [7] | [2]

CCCS(=O)(=O)Nc1ccc(F)c(C(=O)c2c[nH]c3ncc(OCc4ccccc4)cc23)c1F [P-0034, Propane-1-sulfonic acid [3-(5-benzyloxy-1H-pyrrolo[2,3-b]pyridine-3-carbonyl)-2,4-difluoro-phenyl]-amide]
≤ 10 µM: [8] | [9] | [6] | [10] | [7] | [2]

COCCOc1cnc2[nH]ccc2c1 [P-0009, 5-(2-methoxyethoxy)-1H-pyrrolo[2,3-b]pyridine]
≤ 10 µM: [8] | [9]

c1ccc(COc2cnc3[nH]ccc3c2)cc1 [P-0002, 5-(benzyloxy)-1H-pyrrolo[2,3-b]pyridine]
≤ 10 µM: [1] | [2] | [3]

CCCS(=O)(=O)Nc1ccc(F)c(C(=O)c2c[nH]c3ncc(OC4CCOCC4)cc23)c1F [P-0045, Propane-1-sulfonic acid {2,4-difluoro-3-[5-(tetrahydro-pyran-4-yloxy)-11H-pyrrolo[2,3-b]pyridine-3-carbonyl]-phenyl}-amide]
not listed: [1] | [4] | [7] | [10]
≤ 10 µM: all other assays above

CCCS(=O)(=O)Nc1ccc(F)c(C(=O)c2c[nH]c3ncc(S(=O)(=O)c4ccc(C)cc4)cc23)c1F [P-0047, Propane-1-sulfonic acid {2,4-difluoro-3-[5-(toluene-4-sulfonyl)-1H-pyrrolo[2,3-b]pyridine-3-carbonyl]-phenyl}-amide]
≤ 10 µM: [8] | [9] | [2]

c1ccc(CN2CC[C@H](Oc3cnc4[nH]ccc4c3)C2)cc1 [P-0026, 5-((S)-1-benzylpyrrolidin-3-yloxy)-1H-pyrrolo[2,3-b]pyridine]
≤ 10 µM: [8]

c1cc2cc(OCC3CCOCC3)cnc2[nH]1 [P-0019, 5-((tetrahydro-2H-pyran-4-yl)methoxy)-1H-pyrrolo[2,3-b]pyridine]
≤ 10 µM: [8] | [9]

O=C(O)Cc1cccc(Oc2cnc3[nH]cc(C(=O)c4ccc(F)cc4Cl)c3c2)c1 [P-0039, {3-[3-(2-Chloro-4-fluoro-benzoyl)-1H-pyrrolo[2,3-b]pyridin-5-yloxy]-phenyl}-acetic acid]
≤ 10 µM: [6] | [4] | [5] | [2] | [3]

CCCS(=O)(=O)Nc1ccc(F)c(C(=O)c2c[nH]c3ncc(OC4CCCC4)cc23)c1F [P-0033, propane-1-sulfonic acid [3-(5-cyclopentyloxy-1H-pyrrolo[2,3-b]pyridine-3-carbonyl)-2,4-difluoro-phenyl]-amide]
not listed: [4]
≤ 10 µM: all other assays above

c1ccc(Oc2cnc3[nH]ccc3c2)cc1 [P-0035, 5-phenoxy-1H-pyrrolo[2,3-b]pyridine]
≤ 10 µM: [5] | [2] | [3]

COc1cccc(COc2cnc3[nH]ccc3c2)c1 [P-0003, 5-(3-methoxybenzyloxy)-1H-pyrrolo[2,3-b]pyridine]
≤ 10 µM: [2]

Clc1ccc(Cc2c[nH]c3ncc(Oc4ccccc4)cc23)c(Cl)c1 [P-0037, 3-(2,4-dichloro-benzyl)-5-phenoxy-1H-pyrrolo[2,3-b]pyridine]
≤ 10 µM: [5] | [2] | [3]

O=C(c1ccc2cc[nH]c2c1)c1c[nH]c2ncc(OC3CCCC3)cc12 [P-0040, (5-Cyclopentyloxy-1H-pyrrolo[2,3-b]pyridin-3-yl)-(1H-indol-6-yl)-methanone]
≤ 10 µM: [6] | [7] | [5] | [1] | [2] | [3]

FC(F)Oc1ccc(COc2cnc3[nH]ccc3c2)cc1 [P-0014, 5-(4-(difluoromethoxy)benzyloxy)-1H-pyrrolo[2,3-b]pyridine]
≤ 10 µM: [2]

CCCS(=O)(=O)Nc1ccc(F)c(C(=O)c2c[nH]c3ncc(OCCN4CCOCC4)cc23)c1F [P-0041, Propane-1-sulfonic acid {2,4-difluoro-3-[5-(2-morpholin-4-yl-ethoxy)-1H-pyrrolo[2,3-b]pyridine-3-carbonyl]-phenyl}-amide]
≤ 10 µM: [8] | [9] | [2] | [11]
